# US20260294870A1, “INDOLE LACTATE FOR THE TREATMENT OF MULTIPLE SCLEROSIS” (The Johns Hopkins University, priority 2023, published 2026)
# “Also recorded” adds a separate entry of the source.
# Columns and labels:
# [1] = test system: murine oligodendrocyte precursor cells; assay: Differentiation of murine oligodendrocyte precursor cells (immunocytochemistry, qPCR); type: cell-based, murine (neonatal mice); details: for OPC differentiation after PDGF-a withdrawal: PDGF-a withdrawal plus ILA or T3; for OPC differentiation (CC1 expression): compared to control conditions or OPCs treated with PDGF-a
# Excerpt: We tested the effect of several doses of indole lactate on differentiation of oligodendrocyte precursor cells isolated using immune-panning from neonatal mice.
# [2] = test system: human embryonic stem cell derived oligodendrocyte precursor cells; assay: Differentiation of human embryonic stem cell derived oligodendrocyte precursor cells (luciferase under MBP promoter); type: cell-based
# Excerpt: We also tested the effect of indole lactate on differentiation of human embryonic stem cell derived oligodendrocyte precursor cells. In this system, the cells produce luciferase under control of the promoter for MBP. Thus, OPC differentiation can be measured using the quantity of luciferase produced by cells.
# [3] = test system: Arylhydrocarbon Receptor (AhR); assay: CYP1B1 (AhR responsive gene) expression in human ES derived OPCs, quantitative PCR; type: cell-based
# Excerpt: We noted presence of AhR in Olig2+ and PDGFRα+ cells confirming that AhR is present in oligodendrocyte precursor cells. We also obtained RNA from human ES derived OPCs that had been treated with either vehicle or two different doses of ILA for 5 days.
# [4] = test system: Murine MOG specific T cells; assay: T cell proliferation, activation and Th17 polarization by flow cytometry; type: cell-based, murine (2D2 TCR transgenic C57/BL6 mice)
# Experimental: Murine MOG specific T cells were isolated and stimulated with […] Th17 polarizing conditions for 72 hours followed by flow-cytometry to analyze viability, proliferation and Th17 polarization in presence of vehicle or varying doses of ILA;
# T cells were isolated from spleen and lymph nodes of 2D2 TCR transgenic C57/BL6 mice using negative selection (STEMCELL CD4 T cell isolation kit). T cells were then cultured in c-RPMI with MOG35-55 peptide in the presence of irradiated antigen presenting cells with or without additional cytokines to polarize the cells to a Th17 phenotype for 72 hours and then underwent flow-cytometry to analyze proliferation and Th17 polarization.
# [5] = Circulating ILA and IAA levels with oral ILA supplementation; type: in vivo, mice
# Excerpt: FIG. 12A, FIG. 12B, FIG. 12C, FIG. 12D, FIG. 12E, FIG. 12F, FIG. 12G, FIG. 12H, and FIG. 12I show: FIG. 12A. Schematic of product of ILA and IAA and the change in levels with ILA supplementation in naïve mice. FIG. 12B. Clinical scores and plasma ILA and IAA levels at end of experiment in mice on vehicle or oral ILA supplementation. FIG. 12C. Change in ILA/IAA ratio. FIG. 12D. Correlation of ILA/IAA ratio and cumulative EAE score. FIG. 12E. Gut microbiota composition in vehicle and ILA groups at various time points (n=10 each group). FIG. 12F. Change in alpha diversity over the course of EAE.
# [6] = test system: experimental autoimmune encephalomyelitis; assay: Experimental autoimmune encephalomyelitis, oral indole lactate; type: in vivo, Mice (C57/BL6); details: for severity of EAE: oral, ILA 2 mM in drinking water from day 7 post-immunization, 3 weeks, p<0.0001 vs vehicle
# Experimental: (§1) Mice (C57/BL6, 8-9 week old) were immunized with MOG35-55 peptide and CFA and received IP injection of PTX on day 0 and 2. […] Mice were weighed and scored daily using the following scale (0-normal, 1-limp tail, 2-hind-limb weakness, 3-hind-limb paralysis, 4-fore-limb weakness, 5-death).
# We subsequently performed additional experiments in which we induced EAE using the same paradigm, however at day 7 post-immunization mice were randomized to receive ILA orally in drinking water (ILA 2 mM) or acidified water (adjusted to a similar pH) for the next 3 weeks. At four weeks post-immunization mice were euthanized and tissues were collected and processed for immunohistochemistry. We stained sections of the spinal cord to assess for extent of demyelination and for infiltration of immune cells.
# Additionally, we repeated experiments and euthanized mice at the peak of disease to obtain spinal cord tissues for flow cytometric analyses.
# [7] = test system: OPCs from Ahr KO mice; assay: OPC differentiation in OPCs from constitutive Ahr-KO mice; type: cell-based; details: listed as ILA
# Excerpt: We further evaluated the mechanism of ILA using OPCs from mice that lack the Ahr gene—constitutive Ahr-KO mice.
# [8] = test system: OPCs from wild type (WT) mice; assay: OPC differentiation in OPCs from WT mice; type: cell-based
# [9] = test system: experimental autoimmune encephalomyelitis; assay: Experimental autoimmune encephalomyelitis, indole lactate IP; type: in vivo, Mice (C57/BL6); details: for Disease severity (EAE): p<0.0001
# Excerpt: as §1
# [10] = test system: macrophages; assay: Nitric oxide production in macrophages; type: cell-based
# [11] = test system: mouse model of demyelination (cuprizone); assay: Cuprizone model of demyelination, oral ILA in drinking water; type: in vivo, mice
# Experimental: In subsequent experiments, we fed mice with 0.2% cuprizone for 5 weeks and then randomized them to ILA 2 mM in drinking water or acidified water as a control for 2 weeks. […] These observations provide evidence that oral administration of ILA promotes remyelination in vivo in a mouse model of demyelination.
# [12] = test system: gut microbiota; assay: Gut microbiota in EAE mice by 16s rRNA sequencing; type: in vivo
# Excerpt: We examined the change in the gut microbiota using 16s rRNA sequencing at baseline, peak of disease and chronic disease in mice receiving ILA or vehicle orally.
# [13] = test system: Cuprizone-induced model of demyelination; assay: Cuprizone-induced model of demyelination, ILA 20 or 40 mg/kg; type: in vivo, Mice; details: 0.2% Cuprizone 4 weeks then regular chow one week
# Experimental: We tested the ability of indole lactate to promote remyelination in the Cuprizone-induced model of demyelination. Mice were fed with 0.2% Cuprizone for 4 weeks to induce demyelination and then switched to regular chow for one week. At three weeks of Cuprizone feeding mice were randomized to treatment with ILA 20 mg/kg, ILA 40 mg/kg or vehicle for two weeks.
# [14] = test system: human ES derived OPCs; assay: OPC differentiation of human ES derived OPCs with AhR antagonist; type: cell-based; details: small molecule AhR antagonist
# Excerpt: We also tested the effects of blocking AhR signaling using a small molecules AhR antagonist.
# [15] = spinal cord, four weeks post-immunization, oral ILA 2 mM in drinking water
# [16] = spinal cord, peak of disease, oral ILA
# [17] = ILA 2 mM in drinking water, 2 weeks, vs vehicle
structure (smiles),measurement,setting,value
"N[C@@H](Cc1cc(I)c(Oc2ccc(O)c(I)c2)c(I)c1)C(=O)O [T3, reference compound]",OPC differentiation after PDGF-a withdrawal,[1],further potentiated
"O=C(O)C(O)Cc1c[nH]c2ccccc12 (stereo not drawn) [indole lactate, indole-3-lactic acid]",oligodendrocyte precursor cell differentiation based on production of luciferase (marker of MBP expression),[2]; 100 μM,promoted oligodendrocyte precursor cell differentiation
same,oligodendrocyte precursor cell differentiation based on production of luciferase (marker of MBP expression),[2]; 300 μM,promoted oligodendrocyte precursor cell differentiation
same,OPC differentiation measured by Luciferase release,"[2]; ILA treatment conditions, dose-dependent",significant increase in OPC differentiation
same,CYP1B1 expression,[3]; high-dose ILA,CYP1B1 expression increased
same,expression of CYP1B1 (AhR responsive gene),"[3]; two doses of ILA, 5 days, vs vehicle, dose-response relationship",increased expression of CYP1B1
same,T cell activation,[4]; 72 hours,"reduces T cell proliferation, activation"
same,Th17 polarization,"[4]; MOG35-55 peptide, Th17 polarizing cytokines, 72 hours, dose-dependent",reduced T cell proliferation and Th17 polarization in a dose-dependent manner
same,T cell proliferation,"[4]; MOG35-55 peptide, irradiated antigen presenting cells, 72 hours, dose-dependent",reduces T cell proliferation; also recorded: reduced T cell proliferation and Th17 polarization in a dose-dependent manner
same,pro-inflammatory cytokine production from T cells,[4]; in culture,"reduces T cell proliferation, activation and pro-inflammatory cytokine production; also recorded: reduced pro-inflammatory cytokine production"
same,ILA/IAA ratio,[5]; EAE mice,increase in ILA/IAA ratio
same,circulating ILA levels,[5]; naïve mice,increased circulating ILA levels
same,immune cell infiltration on IHC and flow cytometry analysis,[6]; oral indole lactate vs vehicle,reduction in immune cell infiltration
same,severity of EAE,[6],reduced significantly
same,severity of EAE,[6]; listed as ILA,reduced severity of EAE
same,extent of demyelination on IHC,[6]; [15],reduced extent of demyelination
same,immune cell infiltration on IHC,[6]; [15],reduced extent of demyelination and immune cell infiltration
same,iNOS producing inflammatory macrophages (flow cytometry),[6]; [16],shift towards less iNOS producing inflammatory macrophages
same,infiltration of T cells and macrophages (flow cytometry),[6]; [16],reduced infiltration of T cells and macrophages
same,OPC differentiation (pro-differentiation effect of ILA),[7],loss of pro-differentiation effect; also recorded: the effect was lost
same,OPC differentiation,[8],promoted OPC differentiation
same,"disease severity, dose dependence (EAE)",[9]; 10 and 20 mg/kg IP twice daily vs vehicle,significant dose-dependent reduction in disease severity
same,Disease severity (EAE),[9]; high-dose (20 mg/kg) IP twice daily vs vehicle,reduced significantly
same,Disease severity (EAE),[9]; low-dose (10 mg/kg) IP twice daily vs vehicle,reduced significantly
same,production of nitric oxide in macrophages,[10],reduced pro-inflammatory cytokine production from T cells in culture and the production of nitric oxide in macrophages
same,remyelination in the corpus callosum (black gold and fluoromyelin staining),"[11]; ILA 2 mM in drinking water, 2 weeks after 0.2% cuprizone 5 weeks, vs acidified water",significantly increased remyelination
same,"g ratio (scanning EM, corpus callosum)",[11]; [17],significantly lower g ratio
same,"proportion of myelinated axons (scanning EM, corpus callosum)",[11]; [17],higher proportion of myelinated axons
same,"proportion of remyelinated axons (electron micrographs, corpus callosum)",[11]; oral ILA vs vehicle,higher proportion of remyelinated axons
same,acetylene degradation pathway (gut microbiota functional pathway),[12]; ILA supplementation,reduced acetylene degradation pathway
same,change in multiple bacteria (abundance),[12]; oral ILA vs vehicle,differential change in multiple bacteria
same,overall composition of the gut microbiota,"[12]; oral ILA vs vehicle, baseline, peak and chronic disease",change in the overall composition of the gut microbiota
same,area of myelination in the corpus callosum (Black Gold staining),[13]; ILA 20 mg/kg for two weeks,significant increase in area of myelination
same,area of myelination in the corpus callosum (Black Gold staining),[13]; ILA 40 mg/kg for two weeks,significant increase in area of myelination
same,proportion of Olig2 and CC1 double-positive cells,[1]; ILA 150 μM vs vehicle,significantly higher proportion
same,proportion of Olig2 and CC1 double-positive cells,[1]; ILA 300 μM vs vehicle,significantly higher proportion
same,expression of MBP (qPCR),[1]; ILA 300 μM with low dose T3 compared to T3 alone,significantly higher expression
same,OPC differentiation after PDGF-a withdrawal,[1],further potentiated
same,OPC differentiation (CC1 expression),[1],dose-dependent increase in OPC differentiation
same,OPC differentiation (CC1 expression),[1]; listed as ILA,increased differentiation of OPCs
same,effect of AhR antagonist on pro-differentiating effect of ILA,[14]; high doses of ILA,this effect was lost at high doses
same,pro-differentiating effect of ILA in presence of AhR antagonist,"[14]; low doses of ILA, listed as ILA",an AhR inhibitor reverses the effects of ILA on OPC differentiation; also recorded: the AhR antagonist blocked the pro-differentiating effects
